Measurements as given in publication PMC8472790, “Dual Emissive Ir(III) Complexes for Photodynamic Therapy and Bioimaging” (Pharmaceutics, 2021).
Read-outs that look alike come from different tables or passages of the source.

How the values were obtained:
[1] = Distribution coefficient n-octanol/water, shake-flask method; assay type: physicochemical; conditions: pH = 7.4, n-octanol/phosphate buffered saline, 298 K
Method: The n-octanol-water coefficient of complexes 1–4 and L1 and L2 were determined using a shake-flask method. A mixture of buffered-saline distilled water (100 mL, phosphate buffer [PO4^3−] = 10 mM, [NaCl] = 0.15 M, pH 7.4) and n-octanol (100 mL) was shaken for 72 h to allow saturation of both phases. Approximately 0.5 mg of the complexes or ligands werw dissolved in 5 mL of the aqueous phase and 5 mL of the organic phase were added, mixing for 10 min. The resulting emulsion was centrifuged to separate the phases. The concentration of the compounds in each phase was determined using UV absorbance spectroscopy at 298 K. logP7.4 was defined as log{[compound(organic phase)]/[compound(aqueous phase)]}.

[2] = tested on: A549 lung carcinoma cells; assay: MTT-reduction cell viability assay, dark and after LED irradiation; assay type: cell-based, Human; conditions: for PI (Phototoxic index), 405 nm: IC50 dark / IC50 at 405 nm; for PI (Phototoxic index), 470 nm: IC50 dark / IC50 at 470 nm
Method: Human lung carcinoma A549 cell line (from ATCC, Manassas, VA, USA) was cultured in high glucose Dubecco’s Modified Eagle’s Medium (DMEM) supplemented with 5% fetal bovine serum (FBS) as well as L-glutamine and penicillin/streptomycin at 37 °C in a humidified atmosphere of 95% air and 5% CO2.
Cell metabolic activity was analyzed by an MTT-reduction assay to assess the A549 cell sensitivity to the complexes. Thus, 10^5 cells(A549)/mL were seeded in flat-bottom 96-well plates (100 µL/well) in complete medium and allowed to attach for 24 h. A stock solution of the complexes was prepared in DMSO 0.1 M. Subsequent dilutions of the different stock solutions from the complexes using DMEM were prepared. 100 µL/well were added to the cells, in concentrations ranging from 0.2 to 50 µM. each concentration was performed by quadruplicate. After 5 h of incubation with the complexes, duplicates of each concentration were irradiated with an LED lamp upon 405 and 470 nm with a light dose of 6.5 and 15.1 J/m^2, respectively, for 10 min. Before irradiation, culture medium was replaced with fresh medium in order to avoid interference with non-internalized complexes. Cells were cultured for a further 19 h. 10 µL of MTT (5 mg ml^−^1 in PBS) were added to each well and then further 2 h incubation was allowed at 37 °C. Finally, after removing the culture medium, DMSO (100 µL/well) was added to dissolve the formazan crystals. Multiskan EX 96-well multiscanner autoreader (Thermo Fisher Scientific, Waltham, MA, USA) was used to determine the optical density at 550 nm and IC50 was calculated. Each experiment was repeated at least three independent analyses.

A549 cells [3] = assay: Cell morphology by phase contrast (inverted) microscopy; assay type: cell-based, Human; conditions: A549, 10 to 20 µM, 20 h
Method: Alterations in cell morphology and behavior as a consequence of the exposition to ligands and complexes were analyzed using an inverted microscope (Figure 5). […] Oppositely, complexes 1–4 were able to modify cell aspect. All of them triggered cytoplasmic vesicle formation, which was more remarkable for compounds 3 and 4, containing the bzq orthometallated ligand. Moreover, even though cell division still took place in the presence of all of them, it became patently clear that they have cytotoxic properties, being more evident for complexes 1 and 2.
Figure 5 Phase contrast microscopy images of A549 cells treated with L1, L2 and 1–4 at concentrations between 10 and 20 µM for 20 h. Black arrows point to apoptotic cells. Little black triangles show examples of cells containing cytoplasmic vesicles.

A549 cells [4] = assay: Cell cycle analysis, propidium iodide flow cytometry; assay type: cell-based, Human; conditions: for Cell distribution G0-G1 / Cell distribution G2-M / Cell distribution S: 5 h + 19 h
Method: 4 × 105. […] Thereupon, cell culture was changed, and half of the experimental points were irradiated at 470 nm. After 19 h in culture, cells were trypsinized, washed twice with PBS, fixed with cold 70% ethanol (v/v) by vortexing and stored at −20 °C for at least 24 h. After that, cells were wash with cold PBS and stained with 500 μL of a solution of propidium iodide (PI) and RNase (Immunostep, Salamanca, Spain) for 20 min at rt in the dark. Finally, a total of 10,000 cells were acquired on a FACSCalibur^TM flow cytometer and data were analyzed using the aforementioned softwares.

A549 cells [5] = assay: Cytotoxicity assay by flow cytometry, Annexin V-DY634 / 7-AAD double staining; assay type: cell-based, Human; conditions: A549, dark and irradiation at 470 nm
Method: Necrotic and apoptotic cell death was determined by measuring cell membrane permeabilization and phosphatidylserine exposure on cell surface in A549 cells, respectively. 10^5 cells/well were seeded in flat-bottom, 12-well plates (1 mL/well) in complete medium and left 12 h to attach to the plates. […] After 19 h, cells were trypsinized and thereafter resuspended in 50 μL of a mixture of DY634-conjugated Annexin V, Annexin-binding buffer (ABB; 140 mM NaCl, 2.5 mM CaCl2, 10 mM HEPES/NaOH pH 7.4) and 7-amino-actinomycin D (7-AAD). After incubation for further 15 min at rt in dark, cells were diluted to 300 μL with ABB. A total of 10,000 cells were acquired on a FACSCalibur^TM flow cytometer (BD Biosciences, San Jose, CA, USA) and cell death analysis was performed using Flowjo 7.6.1 (Becton Dickinson (BD), Franklin Lakes, NJ, USA), CellQuest Pro (BD Biosciences) and GraphPad Prism 8 (GraphPad Software, San Diego, CA, USA) softwares.

A549 cells [6] = assay: ROS production measurement with dihydroethidium (DHE) by flow cytometry; assay type: cell-based, Human; conditions: A549, IC50 to ¼ IC50, dark and irradiation at 470 nm for 10 min
Method: Cells were incubated with the complex for 5 h and subsequently half of the experimental points were irradiated at 470 nm after replacing culture medium. Upon 19 h, cells were trypsinized, resuspended in 100 μL of a mixture of PBS and 2 μM of the dihydroethidium (DHE) probe, incubated at 37 °C in the dark for 15 min and diluted to 300 μL with PBS. Lastly, a total of 10,000 events were acquired on a FACSCalibur^TM flow cytometer and data were analyzed using the aforementioned softwares

[7] = 5 h incubation, irradiation 10 min at 405 nm (6.5 J/m^2), further 19 h, read-out: IC50(λexc 405 nm)
[8] = 5 h incubation, irradiation 10 min at 470 nm (15.1 J/m^2), further 19 h, read-out: IC50(λexc 470 nm)
[9] = 24 h incubation, no irradiation, read-out: IC50 (DARK)
[10] = Homo sapiens, light or radiation study, 24 h incubation, no irradiation, read-out: IC50 (DARK)
[11] = A549, irradiation at 470 nm, 0.0975 μM (25% IC50)

| Compound | logP(Oct/W) [1] | IC50 [2, 7] [nM] | IC50 [2, 8] [nM] | IC50 [2, 9] [nM] | PI (Phototoxic index), 405 nm [2] | PI (Phototoxic index), 470 nm [2] | logP [1] | IC50 [2, 10] [nM] | Alterations in cell morphology (A549 cells [3]) | also measured |
| --- | --- | --- | --- | --- | --- | --- | --- | --- | --- | --- |
| [Cl-].c1ccc(-c2cccc[c]2[Ir+][c]2ccccc2-c2ccccn2)nc1.c1ccc(N(c2ccccn2)c2c3ccccc3cc3ccccc23)nc1 [Complex 1] | 0.75 | 1160 ± 60 | 180 ± 50 | 13600 ± 80 | 11.7 | 75.5 | – | – | – | – |
| [Cl-].c1ccc(N(c2ccccn2)c2c3ccccc3cc3ccccc23)nc1.c1cnc2c(c1)ccc1ccc[c]([Ir+][c]3cccc4ccc5cccnc5c34)c12 [Complex 3] | 1.73 | 1350 ± 80 | 400 ± 80 | 18900 ± 120 | 14.0 | 47.2 | – | – | – | – |
| c1ccc(N(c2ccccn2)c2c3ccccc3cc3ccccc23)nc1 [Complex L1] | – | – | – | – | – | – | 1.2 | > 50000 | apoptotic or necrotic cells were not detected | – |
| c1ccc(N(c2ccccn2)c2c3ccccc3nc3ccccc23)nc1 [Complex L2] | – | – | – | – | – | – | 0.59 | > 50000 | apoptotic or necrotic cells were not detected | – |
| [Ir(bzq)2(dpa-acr)]^+ [Complex 4] | 1.24 | > 5000 | 390 ± 90 | 43380 ± 140 | – | – | – | – | – | Cell distribution G0-G1 (A549 cells [4]; A549, dark, 10.9 μM (25% IC50)): 72.4%; Cell distribution G2-M (A549 cells [4]; A549, dark, 10.9 μM (25% IC50)): 13.5%; Cell distribution S (A549 cells [4]; A549, dark, 10.9 μM (25% IC50)): 14.1%; Cell distribution G0-G1 (A549 cells [4]; [11]): 73.7%; Cell distribution G2-M (A549 cells [4]; [11]): 14.0%; Cell distribution S (A549 cells [4]; [11]): 12.3%; Cell cycle arrest (A549 cells [4]; A549, ¼ IC50, dark and irradiation at 470 nm): not capable of stopping the cell cycle at any of its phases; Cell death pathway (A549 cells [5]): triggers the apoptotic pathway; ROS generation (DHE) (A549 cells [6]): concentration-dependent ROS generation |
